# Entries after “also recorded” stand apart in the source; their conditions may differ.
# B1: β-hCG: β-subunit of human chorionic gonadotropin, glycoprotein hormone secreted by recombinant tumor cells as urinary marker (protein)
# chain: SKEPLRPRCRPINATLAVEKEGCPVCITVNTTICAGYCPTMTRVLQGVLPALPQVVCNYRDVRFESIRLPGCPRGVNPVVSYAVALSCQCALCRRSTTDCGGPKDHPLTCDDPRFQDSSSSKAPPPSLPSPSRLPGPSDTPILPQ
# Legend:
# [1] = test system: EMT6-CG-TK cells; assay: Ganciclovir treatment of intraperitoneal EMT6-CG-TK tumors monitored by urinary β-hCG; type: in vivo, Balb/c mice
# Procedure: (§1) FIG. 5C. Urinary β-hCG levels before and after ganciclovir (GCV) treatment of intraperitoneal tumors. Five Balb/c mice were injected intraperitoneally with 4×10^6 EMT6-CG-TK cells (black symbols). They received a four-day course of ganciclovir (150 mg/kg/day), administered intraperitoneally beginning three days after tumor cell injection.
# (§2) The β-hCG MAIAclone kit (Polymedco Inc. Cortlandt Manor, N.Y.), based on an immunoradiometric system, was used for quantitative determination of urinary β-hCG. Fifty μl of mouse urine samples diluted to achieve a final β-hCG concentration of 2.5-20 mIU/ml, standards, positive and negative controls were mixed with 0.5 ml of ^125I anti-hCG antibodies in 12×75 mm glass tubes (VWR Scientific, Boston, Mass.) and incubated at 37° C. for 15 min. […] The radioactivity of each sample was analyzed in a Gamma 5500 counter (Beckman, Fullerton, Calif.). […] Urinary β-hCG levels were normalized to urinary creatinine measured with a Roche Hitachi 917 analyzer (Roche Diagnostics, Indianapolis, Ind.). The ratio of β-hCG to creatinine was expressed as mIU β-hCG/mg creatinine.
# (§3) Next the recombinant tumor system of the present invention was applied to a chemotherapeutic model. […] The difference between the kinetics of tumor cell death mediated by surgery and chemotherapy is readily evident through comparison of FIGS. 5A and 5C.
# [2] = test system: EMT6-CG tumors; assay: Ganciclovir treatment of control EMT6-CG tumors monitored by urinary β-hCG; type: in vivo, Balb/c mice; conditions: control EMT6-CG tumors without thymidine kinase
# Procedure: as §1, §2, §3
# [3] = Comparison of β-hCG concentrations in urine and serum of mice with subcutaneous B16-CG tumors; type: in vivo; conditions: serum 10-240 mIU/ml, six mice
# Procedure: The β-hCG MAIAclone kit (Polymedco Inc. Cortlandt Manor, N.Y.), based on an immunoradiometric system, was used for quantitative determination of urinary β-hCG. Fifty μl of mouse urine samples diluted to achieve a final β-hCG concentration of 2.5-20 mIU/ml, standards, positive and negative controls were mixed with 0.5 ml of ^125I anti-hCG antibodies in 12×75 mm glass tubes (VWR Scientific, Boston, Mass.) and incubated at 37° C. for 15 min. Two hundred μl of the magnetic separation matrix provided with the kit was then added to each tube and incubated for 5 min at room temperature. The magnetic reagent with bound β-hCG was separated using a magnetic concentrator (Polymedco Inc.). The matrix was washed in 0.5 ml of the MAIAclone washing buffer provided with the kit and reseparated magnetically. The radioactivity of each sample was analyzed in a Gamma 5500 counter (Beckman, Fullerton, Calif.). The minimal detectable level of β-hCG was 2.5 mIU/ml. Urinary β-hCG levels were normalized to urinary creatinine measured with a Roche Hitachi 917 analyzer (Roche Diagnostics, Indianapolis, Ind.). The ratio of β-hCG to creatinine was expressed as mIU β-hCG/mg creatinine.
# To determine whether β-hCG would be excreted in the urine of mice, as it is in pregnant women, the concentrations of β-hCG in urine and serum of mice with subcutaneous B16-CG tumors were compared. […]
# [4] = Clearance of urinary β-hCG after surgical removal of subcutaneous SW480-CG tumors; type: in vivo, athymic (nu/nu) mice
# Procedure: Female mice, 10-12 weeks old, were obtained from Harlan (Indianapolis, Ind.). For tail vein injections, 10^5 B 16-CG cells in 0.1 ml PBS were injected into C57BL/6 mice. For intraperitoneal administration, 2×10^6 EMT6-CG cells in 0.3 ml PBS were injected intraperitoneally into Balb/c mice. For intrasplenic injection, 10^6 B16-CG cells in 0.1 ml PBS were injected into the spleens of athymic (nu/nu) mice. For subcutaneous injection, 3×10^6 B16-CG cells or 8×10^6 SW480-CG cells in 0.1 ml PBS were injected into subcutaneous tissues adjacent to the lower spine of athymic (nu/nu) mice.
# as §2, with “creatinine. […]” for “creatinine.”
Molecule,"Urinary β-hCG levels after ganciclovir treatment ([1]; ganciclovir 150 mg/kg/day intraperitoneally, four-day course beginning three days after tumor cell injection)",Necropsy finding after ganciclovir treatment ([1]; necropsy after β-hCG declined to background),Tumor response to ganciclovir (urinary β-hCG) [2],urine concentration relative to serum concentration of β-hCG [3],"half-life of urinary β-hCG ([4]; after surgical removal of SW480-CG tumors, eight animals)","Urinary β-hCG levels after tumor removal ([4]; subcutaneous SW480-CG tumors removed 18 days after implantation, within a day or two of removal)"
Nc1nc(O)c2ncn(COC(CO)CO)c2n1 [ganciclovir],began to decline one day after the start of ganciclovir treatment; also recorded: declined to background levels over the next five days,"apparently tumor free, without ascites or peritoneal implants",did not respond; also recorded: continued to grow,,,
B1,,,,3.8±0.31 times the serum concentration,11 ± 2.3 h,rapidly dropped to undetectable levels

# From patent US6926890B2, “Non-invasive approach for assessing tumors in living animals” (priority 2000, dated 2005)
